Reference: the NIST ThermoML archive (doi:10.1016/j.jct.2015.12.027)

Columns and labels:
[1] = xn = mol fraction of the nth substance listed; conditions: 81.5 kPa, Liquid, Vibrating tube method
[2] = refractive index (Na D-line) (dimensionless); xn = mol fraction of the nth substance listed; conditions: 81.5 kPa, Liquid, Standard Abbe refractometry

ClCCCl [1,2-dichloroethane] + c1ccccc1
Conditions	mass density, 293.15 K [kg/m3]	mass density, 303.15 K [kg/m3]	mass density, 313.15 K [kg/m3]	mass density, 323.15 K [kg/m3]	mass density, 333.15 K [kg/m3]	refractive index, 293.15 K	refractive index, 303.15 K	refractive index, 313.15 K	refractive index, 323.15 K	refractive index, 333.15 K
[1], x1 = 0.1002	911.76	900.68	889.51	878.27	866.86	–	–	–	–	–
[1], x1 = 0.207	947.74	936.23	924.62	912.92	901.08	–	–	–	–	–
[1], x1 = 0.3043	981.38	969.5	957.49	945.42	933.17	–	–	–	–	–
[1], x1 = 0.4032	1016.56	1004.31	991.92	979.41	966.77	–	–	–	–	–
[1], x1 = 0.5005	1052.14	1039.52	1026.72	1013.82	1000.75	–	–	–	–	–
[1], x1 = 0.5975	1088.72	1075.72	1062.52	1049.18	1035.66	–	–	–	–	–
[1], x1 = 0.7235	1137.85	1124.32	1110.59	1096.67	1082.64	–	–	–	–	–
[1], x1 = 0.8005	1168.91	1155.04	1140.95	1126.76	1112.37	–	–	–	–	–
[1], x1 = 0.8918	1206.83	1192.59	1178.02	1163.49	1148.78	–	–	–	–	–
[1], x1 = 1	1252.82	1238.27	1223.53	1208.61	1193.61	–	–	–	–	–
[2], x1 = 0.1002	–	–	–	–	–	1.49506	1.48919	1.48273	1.477	1.47091
[2], x1 = 0.207	–	–	–	–	–	1.48849	1.48273	1.47644	1.4708	1.46486
[2], x1 = 0.3043	–	–	–	–	–	1.48263	1.47694	1.47079	1.46522	1.45939
[2], x1 = 0.4032	–	–	–	–	–	1.47684	1.47123	1.46522	1.45971	1.45398
[2], x1 = 0.5005	–	–	–	–	–	1.47135	1.46581	1.45994	1.45449	1.44884
[2], x1 = 0.5975	–	–	–	–	–	1.46605	1.46058	1.45484	1.44943	1.44387
[2], x1 = 0.7235	–	–	–	–	–	1.45935	1.45396	1.44838	1.44302	1.43756
[2], x1 = 0.8005	–	–	–	–	–	1.45531	1.44995	1.44445	1.43912	1.43372
[2], x1 = 0.8918	–	–	–	–	–	1.4505	1.44519	1.43979	1.43449	1.42916
[2], x1 = 1	–	–	–	–	–	1.44472	1.43948	1.43423	1.42897	1.42373

Brc1ccccc1 [bromobenzene] + ClCCCl
Conditions	mass density, 293.15 K [kg/m3]	mass density, 303.15 K [kg/m3]	mass density, 313.15 K [kg/m3]	mass density, 323.15 K [kg/m3]	mass density, 333.15 K [kg/m3]	refractive index, 293.15 K	refractive index, 303.15 K	refractive index, 313.15 K	refractive index, 323.15 K	refractive index, 333.15 K
[1], x2 = 0	1495.52	1481.97	1468.41	1454.85	1441.22	–	–	–	–	–
[1], x2 = 0.1031	1475.66	1461.99	1448.3	1434.54	1420.74	–	–	–	–	–
[1], x2 = 0.2005	1455.9	1442.07	1428.17	1414.26	1400.29	–	–	–	–	–
[1], x2 = 0.3001	1434.62	1420.64	1406.6	1392.5	1378.34	–	–	–	–	–
[1], x2 = 0.3997	1412.26	1398.16	1383.98	1369.73	1355.39	–	–	–	–	–
[1], x2 = 0.4996	1388.86	1374.68	1360.39	1345.98	1331.47	–	–	–	–	–
[1], x2 = 0.6001	1364.37	1350.09	1335.69	1321.15	1306.48	–	–	–	–	–
[1], x2 = 0.6993	1339.1	1324.73	1310.2	1295.56	1280.77	–	–	–	–	–
[1], x2 = 0.7993	1312.25	1297.77	1283.16	1268.43	1253.56	–	–	–	–	–
[1], x2 = 0.8986	1283.81	1269.28	1254.59	1239.77	1224.87	–	–	–	–	–
[2], x2 = 0	–	–	–	–	–	1.55981	1.55442	1.5489	1.54319	1.53742
[2], x2 = 0.1031	–	–	–	–	–	1.55145	1.5466	1.54165	1.53652	1.53135
[2], x2 = 0.2005	–	–	–	–	–	1.54415	1.53939	1.53455	1.52957	1.52458
[2], x2 = 0.3001	–	–	–	–	–	1.53597	1.53114	1.52627	1.5213	1.51632
[2], x2 = 0.3997	–	–	–	–	–	1.5262	1.52135	1.51645	1.51147	1.5065
[2], x2 = 0.4996	–	–	–	–	–	1.51453	1.50972	1.50487	1.49994	1.49501
[2], x2 = 0.6001	–	–	–	–	–	1.50149	1.49679	1.49202	1.48719	1.48235
[2], x2 = 0.6993	–	–	–	–	–	1.48764	1.48301	1.47833	1.47357	1.46881
[2], x2 = 0.7993	–	–	–	–	–	1.47349	1.46883	1.46414	1.45938	1.45461
[2], x2 = 0.8986	–	–	–	–	–	1.45961	1.45476	1.44989	1.44499	1.44008
